# Test results from PubChem BioAssay (NCI).
#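 Briefly, cells in 96-well plates were exposed to five compound concentrations for 48 h, and endpoints were estimated by linear interpolation. At the TGI there is no net growth.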
# Experiments:
# Test in all cases: NCI tumour cell line growth inhibition, 48 h
# UACC-257 melanoma = tested on: UACC-257 melanoma
# CAKI-1 renal = tested on: CAKI-1 renal
# OVCAR-3 ovarian = tested on: OVCAR-3 ovarian
# SK-MEL-5 melanoma = tested on: SK-MEL-5 melanoma
# HOP-92 NSCLC = tested on: HOP-92 NSCLC
# CCRF-CEM leukemia = tested on: CCRF-CEM leukemia
# OVCAR-4 ovarian = tested on: OVCAR-4 ovarian
# KM20L2 colon = tested on: KM20L2 colon
# OVCAR-5 ovarian = tested on: OVCAR-5 ovarian
# A498 renal = tested on: A498 renal
# A549 NSCLC = tested on: A549 NSCLC
# HT29 colon = tested on: HT29 colon
# SN12C renal = tested on: SN12C renal
# SF-539 CNS = tested on: SF-539 CNS
# SW-620 colon = tested on: SW-620 colon
# NCI-H522 lung = tested on: NCI-H522 lung
# SK-OV-3 ovarian = tested on: SK-OV-3 ovarian
# EKVX NSCLC = tested on: EKVX NSCLC
# M19-MEL melanoma = tested on: M19-MEL melanoma
# NCI-H23 lung = tested on: NCI-H23 lung
# TK-10 renal = tested on: TK-10 renal
# DMS 273 small cell lung = tested on: DMS 273 small cell lung
# OVCAR-8 ovarian = tested on: OVCAR-8 ovarian
# M14 melanoma = tested on: M14 melanoma
# NCI-H460 lung = tested on: NCI-H460 lung
# HOP-62 NSCLC = tested on: HOP-62 NSCLC
# SK-MEL-2 melanoma = tested on: SK-MEL-2 melanoma
# LXFL 529 NSCLC = tested on: LXFL 529 NSCLC
# MALME-3M melanoma = tested on: MALME-3M melanoma
# SF-268 CNS = tested on: SF-268 CNS
# K-562 leukemia = tested on: K-562 leukemia
# MOLT-4 leukemia = tested on: MOLT-4 leukemia
# HCC-2998 colon = tested on: HCC-2998 colon
# HCT-116 colon = tested on: HCT-116 colon
# IGROV1 ovarian = tested on: IGROV1 ovarian
# UO-31 renal = tested on: UO-31 renal
# SK-MEL-28 melanoma = tested on: SK-MEL-28 melanoma
# DMS 114 small cell lung = tested on: DMS 114 small cell lung
# HOP-18 NSCLC = tested on: HOP-18 NSCLC
# SF-295 CNS = tested on: SF-295 CNS
# XF 498 CNS = tested on: XF 498 CNS
# KM12 colon = tested on: KM12 colon
# HL-60(TB) leukemia = tested on: HL-60(TB) leukemia
# UACC-62 melanoma = tested on: UACC-62 melanoma
# SNB-19 CNS = tested on: SNB-19 CNS
# 786-0 renal = tested on: 786-0 renal
# SNB-75 CNS = tested on: SNB-75 CNS
# DLD-1 colon = tested on: DLD-1 colon
# HCT-15 colon = tested on: HCT-15 colon
# LOX IMVI melanoma = tested on: LOX IMVI melanoma
# COLO 205 colon = tested on: COLO 205 colon
# U251 CNS = tested on: U251 CNS
# ACHN renal = tested on: ACHN renal
# SR leukemia = tested on: SR leukemia
# RPMI-8226 leukemia = tested on: RPMI-8226 leukemia
# RXF 393 renal = tested on: RXF 393 renal
# SNB-78 CNS = tested on: SNB-78 CNS
# NCI-H226 lung = tested on: NCI-H226 lung
smiles,measurement,setting,value
COc1cc(CNc2cnc3cc(N)ccc3n2)cc(OC)c1OC,TGI,UACC-257 melanoma,> 100 µM
same,TGI,CAKI-1 renal,> 100 µM
same,TGI,OVCAR-3 ovarian,41.1 µM
same,TGI,SK-MEL-5 melanoma,> 100 µM
same,TGI,HOP-92 NSCLC,> 100 µM
same,TGI,CCRF-CEM leukemia,> 100 µM
same,TGI,OVCAR-4 ovarian,> 100 µM
same,TGI,KM20L2 colon,37.7 µM
same,TGI,OVCAR-5 ovarian,> 100 µM
same,TGI,A498 renal,> 100 µM
same,TGI,A549 NSCLC,> 100 µM
same,TGI,HT29 colon,55.8 µM
same,TGI,SN12C renal,> 100 µM
same,TGI,SF-539 CNS,42.4 µM
same,TGI,SW-620 colon,> 100 µM
same,TGI,NCI-H522 lung,74.5 µM
same,TGI,SK-OV-3 ovarian,53 µM
same,TGI,EKVX NSCLC,> 100 µM
same,TGI,M19-MEL melanoma,> 100 µM
same,TGI,NCI-H23 lung,> 100 µM
same,TGI,TK-10 renal,> 100 µM
same,TGI,DMS 273 small cell lung,2.43 µM
same,TGI,OVCAR-8 ovarian,> 100 µM
same,TGI,M14 melanoma,74.3 µM
same,TGI,NCI-H460 lung,> 100 µM
same,TGI,HOP-62 NSCLC,> 100 µM
same,TGI,SK-MEL-2 melanoma,2.38 µM
same,TGI,LXFL 529 NSCLC,> 100 µM
same,TGI,MALME-3M melanoma,> 100 µM
same,TGI,SF-268 CNS,> 100 µM
same,TGI,K-562 leukemia,> 100 µM
same,TGI,MOLT-4 leukemia,> 100 µM
same,TGI,HCC-2998 colon,> 100 µM
same,TGI,HCT-116 colon,50.2 µM
same,TGI,IGROV1 ovarian,> 100 µM
same,TGI,UO-31 renal,> 100 µM
same,TGI,SK-MEL-28 melanoma,> 100 µM
same,TGI,DMS 114 small cell lung,61 µM
same,TGI,HOP-18 NSCLC,> 100 µM
same,TGI,SF-295 CNS,80.8 µM
same,TGI,XF 498 CNS,> 100 µM
same,TGI,KM12 colon,> 100 µM
same,TGI,HL-60(TB) leukemia,39.8 µM
same,TGI,UACC-62 melanoma,> 100 µM
same,TGI,SNB-19 CNS,> 100 µM
same,TGI,786-0 renal,> 100 µM
same,TGI,SNB-75 CNS,> 100 µM
same,TGI,DLD-1 colon,> 100 µM
same,TGI,HCT-15 colon,> 100 µM
same,TGI,LOX IMVI melanoma,> 100 µM
same,TGI,COLO 205 colon,62.2 µM
same,TGI,U251 CNS,> 100 µM
same,TGI,ACHN renal,> 100 µM
same,TGI,SR leukemia,> 100 µM
Cc1nnc2c3nnc(C)n3c3ccccc3n12,TGI,RPMI-8226 leukemia,> 100 µM
same,TGI,UACC-257 melanoma,> 100 µM
same,TGI,CAKI-1 renal,> 100 µM
same,TGI,RXF 393 renal,> 100 µM
same,TGI,OVCAR-3 ovarian,> 100 µM
same,TGI,SK-MEL-5 melanoma,> 100 µM
same,TGI,HOP-92 NSCLC,> 100 µM
same,TGI,CCRF-CEM leukemia,> 100 µM
same,TGI,OVCAR-4 ovarian,> 100 µM
same,TGI,KM20L2 colon,> 100 µM
same,TGI,OVCAR-5 ovarian,> 100 µM
same,TGI,SNB-78 CNS,> 100 µM
same,TGI,A498 renal,> 100 µM
same,TGI,A549 NSCLC,> 100 µM
same,TGI,HT29 colon,> 100 µM
same,TGI,SN12C renal,> 100 µM
same,TGI,SF-539 CNS,> 100 µM
same,TGI,SW-620 colon,> 100 µM
same,TGI,NCI-H226 lung,> 100 µM
same,TGI,NCI-H522 lung,> 100 µM
same,TGI,SK-OV-3 ovarian,> 100 µM
same,TGI,EKVX NSCLC,> 100 µM
same,TGI,NCI-H23 lung,> 100 µM
same,TGI,TK-10 renal,> 100 µM
same,TGI,DMS 273 small cell lung,> 100 µM
same,TGI,OVCAR-8 ovarian,> 100 µM
same,TGI,M14 melanoma,> 100 µM
same,TGI,NCI-H460 lung,> 100 µM
same,TGI,HOP-62 NSCLC,> 100 µM
same,TGI,SK-MEL-2 melanoma,> 100 µM
same,TGI,LXFL 529 NSCLC,> 100 µM
same,TGI,MALME-3M melanoma,> 100 µM
same,TGI,SF-268 CNS,> 100 µM
same,TGI,K-562 leukemia,> 100 µM
same,TGI,MOLT-4 leukemia,> 100 µM
same,TGI,HCC-2998 colon,> 100 µM
same,TGI,HCT-116 colon,> 100 µM
same,TGI,IGROV1 ovarian,> 100 µM
same,TGI,UO-31 renal,> 100 µM
same,TGI,SK-MEL-28 melanoma,> 100 µM
same,TGI,DMS 114 small cell lung,> 100 µM
same,TGI,SF-295 CNS,> 100 µM
same,TGI,XF 498 CNS,> 100 µM
same,TGI,KM12 colon,> 100 µM
same,TGI,UACC-62 melanoma,> 100 µM
same,TGI,SNB-19 CNS,> 100 µM
same,TGI,786-0 renal,> 100 µM
same,TGI,SNB-75 CNS,> 100 µM
same,TGI,DLD-1 colon,> 100 µM
same,TGI,HCT-15 colon,> 100 µM
same,TGI,LOX IMVI melanoma,> 100 µM
same,TGI,COLO 205 colon,> 100 µM
same,TGI,U251 CNS,> 100 µM
same,TGI,ACHN renal,> 100 µM
